Assay results as given in patent US20250051314A1, “SMALL MOLECULE INHIBITORS OF INTERFERON GAMMA SIGNALING” (INSTITUT CURIE, priority 2021, published 2025).
pIC50: −log10 of the molar value.

Legend:
Format in all cases: cell-based
[1] = system: formin-mediated actin assembly; assay: In cellulo actin nucleation assay (phalloidin staining, cell area); conditions: Hela cells, 40 μM, 20 min
Method: Hela cells grown on coverslips were treated with DMEM containing 0.2% BSA and the compounds (40 μM) for 20 min at 37° C., washed with cold PBS (two times) and then fixed with 4% paraformaldehyde for 30 min at room temperature, quenched in 50 mM NH4Cl for 10 min and permeabilized with 0.05% saponin in 0.2% BSA in PBS for 20 min. Cells were incubated with 165 nM phalloidin for 1 h at room temperature. DAPI containing fluoromount-G was used to mount coverslips onto glass slide. Cell areas were measured with ImageJ software (NIH).

[2] = system: IFNγ-induced tyrosine phosphorylation of STAT1 (pSTAT1); assay: JAK/STAT signalling activation assay (pSTAT1/tSTAT1 immunoblot); conditions: Hela cells; for inhibition of phosphorylation of STAT, dose-response in words: different concentrations; for inhibition of phosphorylation of STAT, dose-response in words / inhibition of IFNγ-induced pSTAT1 (IFNγ-signaling), result in words: 20 min pre-incubation with IFNγ; for pIC50: Homo sapiens, 1000 U/ml IFNγ pre-incubated 20 min with compound, non-linear curve fit, n=3, read-out: IC50 pSTAT1 inhibition; for inhibition of IFNγ-induced pSTAT1 (IFNγ-signaling), result in words: screening at 40 μM
Method: Cell culture: Hela cells were grown at 37° C. under 5% CO2 in DMEM high glucose Glutamax (Gibco, Life Technologies) complemented with 10% FBS (v/v) (Gibco, Life Technologies) and supplemented with 5 mM pyruvate (v/v) (Gibco, Life Technologies) and 1% penicillin-streptomycin (v/v) (Gibco, Life Technologies). Primary antibodies: Mouse anti-phospho-STAT1 Tyr701 (BD Transduction Laboratories, 612132, RRID: AB_399503, 1:1000 for western blot), rabbit anti-STAT1 (Cell Signaling, 9172, RRID: AB_2198300, 1:1000 for western blot), mouse anti-alpha-tubulin (Sigma, clone B512, T5168, RRID: AB_86546, 1:5000 for western blot); rabbit anti-IFN-γ ([Abcam, EPR1108, ab133566, 1:1000 for western blot). Secondary antibodies anti-mouse-Alexa488 (Invitrogen, A21202), anti-mouse-HRP (Jackson ImmunoResearch, 715-035-151) and anti-rabbit-HRP (Jackson ImmunoResearch, […]) were used at 1:5000 for western blot.
20 mM stock solution of compounds in DMSO were prepared and stored at −20° C.
Hela cells were treated 20 min at 37° C. with mixture containing 1000 U·ml^−1 IFNγ in DMEM with 0.2% BSA preincubated for 20 min at 37° C. with DMSO (as control) for JAK/STAT stimulation. For screening compounds, 40 μM compounds were pre-incubated with 1000 U·ml^−1 of IFNγ in DMEM containing 0.2% BSA for 20 min at 37° C. before adding it to Hela cells. 10-fold 7 or 5 serial dilutions from 400 μM of compounds were made in DMEM containing 1000 U·ml^−1 of IFNγ and 0.2% BSA, and incubated for 20 min before stimulating JAK/STAT for finding IC50 towards IFNγ.
Cells were lysed in sample buffer (62.5 mM Tris/HCl, […], 2% v/v SDS, 10% glycerol v/v, 40 mM dithiothreitol, and 0.03% w/v phenol red). Samples were analysed by SDS-PAGE on 4-15% Mini-PROTEAN* TGX™ Precast Gels or on 4-15% Mini-PROTEAN′ TGX™ Stain Free Gel (Bio-Rad) and immuno-blotted with the indicated primary antibodies and horseradish peroxidase- or Alexa488-conjugated secondary antibodies. […] Acquisition and quantification were performed with the ChemiDoc MP Imaging System (Bio-Rad). Phosphorylated protein over total protein ratio was determined on the same blot using horseradish peroxidase and Alexa488 signals.

Hela cells = assay: Cell viability assay (CellTiter-Blue); conditions: Hela cells treated for 24 h; for pIC50: Homo sapiens, n=3
Method: Cell viability assay was carried out by plating 10,000 cells/well in 96-well plates. 3-Fold 8 serial dilutions of the compounds from 3 mM were made in DMEM. HeLa cells were treated for 24 h with the compounds of different concentrations made. In case of preincubation with IFNγ, 6000 U·ml^−1 of IFNγ per concentration of compounds were used and incubated for 20 min. According to manufacturer's protocol,
CellTiter-Blue® reagent was added after 24 h treatment and cells were incubated for 3 h before recording fluorescence intensities (λex. 560/20 nm; λem. 590/10 nm) using a Perkin Elmer Wallac 1420 Victor2 Microplate Reader.

| SMILES | formin targeting / actin assembly (phalloidin pattern, cell area), result in words [1] | inhibition of phosphorylation of STAT, dose-response in words [2] | pIC50 [2] | cytotoxicity at effective doses (Hela cells) | pIC50 (Hela cells) | inhibition of IFNγ-induced pSTAT1 (IFNγ-signaling), result in words [2] |
| --- | --- | --- | --- | --- | --- | --- |
| Cc1ccc(C=C2C(=O)NC(=S)N(c3cccc(F)c3)C2=O)o1 [Compound 6a, 1-(3-fluorophenyl)-5-((5-methylfuran-2-yl)methylene)-2-thioxodihydropyrimidine-4,6(1H,5H)-dione] | inhibited either IFNγ-signaling or formins |  |  |  |  |  |
| C#Cc1ccc(C=C2C(=O)NC(=S)N(c3cccc(F)c3)C2=O)o1 [Compound 5b, 5-((5-ethynylfuran-2-yl)methylene)-1-(3-fluorophenyl)-2-thioxodihydropyrimidine-4,6(1H,5H)-dione] |  | dose-dependent manner in the low micromolar range | 5.98 | did not show significant cytotoxicity at effective doses | 4.02 |  |
| O=C1NC(=S)N(c2cccc(Br)c2)C(=O)C1=Cc1ccco1 [SMIFH2, 1-(3-Bromophenyl)-5-(2-furylmethylene)-2-thioxo-hexahydropyrimidine-4,6-dione, reference compound] |  |  |  |  |  | capable of inhibiting IFNγ signaling |
| O=C1NC(=S)N(c2cccc(F)c2)C(=O)C1=Cc1ccc(Br)o1 [Compound 6i, 5-((5-bromofuran-2-yl)methylene)-1-(3-fluorophenyl)-2-thioxodihydropyrimidine-4,6(1H,5H)-dione] | inhibited either IFNγ-signaling or formins |  |  |  |  |  |
| O=C1NC(=O)N(c2cccc(Br)c2)C(=O)C1=Cc1ccco1 [Compound 6l, 1-(3-bromophenyl)-5-(furan-2-ylmethylene)pyrimidine-2,4,6(1H,3H,5H)-trione] |  |  |  |  |  | did not show IFNγ-signaling inhibitory activity |
| C#Cc1ccc(C=C2C(=O)N(c3cccc(F)c3)C(=S)N(c3cccc(F)c3)C2=O)o1 [Compound 5k, 5-((5-ethynylfuran-2-yl)methylene)-1,3-bis(3-fluorophenyl)-2-thioxodihydropyrimidine-4,6(1H,5H)-dione] |  | dose-dependent manner in the low micromolar range | 5.22 | did not show significant cytotoxicity at effective doses | 4.02 |  |
| C#Cc1ccc(C=C2C(=O)NC(=S)N(c3cccc(Br)c3)C2=O)o1 [Compound 5a, (1-(3-bromophenyl)-5-((5-ethynylfuran-2-yl)methylene)-2-thioxodihydropyrimidine-4,6(1H,5H)-dione)] | deprived of formin targeting | dose-dependent manner in the low micromolar range | 5.97 | did not show significant cytotoxicity at effective doses | 3.48 | inhibited IFNγ-induced pSTAT1 |
| C#Cc1ccc(C=C2C(=O)NC(=O)N(c3cccc(Br)c3)C2=O)o1 [Compound 5l, 1-(3-bromophenyl)-5-((5-ethynylfuran-2-yl)methylene)pyrimidine-2,4,6(1H,3H,5H)-trione] | retained its activity against both IFNγ-signaling and formin |  |  |  |  | retained its activity against both IFNγ-signaling and formin |
| O=C1NC(=S)N(c2cccc(F)c2)C(=O)C1=Cc1ccc(Cl)o1 [Compound 6b, 5-((5-chlorofuran-2-yl)methylene)-1-(3-fluorophenyl)-2-thioxodihydropyrimidine-4,6(1H,5H)-dione] |  |  |  |  |  | inhibited either IFNγ-signaling or formins |
| C#Cc1ccc(C=C2C(=O)N(c3cccc(Br)c3)C(=S)N(c3cccc(Br)c3)C2=O)o1 [Compound 5j, 1,3-bis(3-bromophenyl)-5-((5-ethynylfuran-2-yl)methylene)-2-thioxodihydropyrimidine-4,6(1H,5H)-dione] |  | dose-dependent manner in the low micromolar range | 5.33 | did not show significant cytotoxicity at effective doses | 3.51 | biologically active compounds |
